Assay results: paper PMC6723402, “Secondary Metabolites with α-Glucosidase Inhibitory Activity from the Mangrove Fungus Mycosphaerella sp. SYSU-DZG01” (Marine Drugs, 2019)

How the values were obtained:
[1] = DPPH· radical scavenging (antioxidant) assay; conditions: 30 min; for Antioxidant % Inhibition (100 μM): DPPH· scavenging at 100 μM; for EC50: DPPH· scavenging
Experimental: The DPPH· scavenging was assayed according to the reported method. The DPPH radical scavenging test was performed in 96-well microplates. Testing materials (compounds 1–11) were added to 150 μL (0.16 mmol/L) DPPH solution in MeOH at a range of 50 μL solutions of different concentrations (2, 25, 50 and 100 μM). After 30 min, absorbance at 517 nm was measured and the percentage of activity was calculated. Ascorbic acid was used as a positive control.

[2] = target: α-glucosidase; assay: α-glucosidase inhibitory activity assay (p-nitrophenyl glycoside substrate, 96-well, 405 nm); assay type: biochemical; conditions: PBS pH 7.0, 37 °C
Experimental: The α-glucosidase inhibitory activity was assayed according to the reported method. The inhibitory activity of α-glucosidase was tested in the 96-well plated with […] PBS (KH2PO4-K2HPO4, pH 7.0) buffer solution each. […] The assay was conducted in a 100 μL reaction system containing 20 μL enzyme stock solution, 69 μL PBS buffers and 1 μL of DMSO or testing materials. After 10 min incubation at 37 °C, 10 μL of the substrate was added and incubated for 20 min at 37 °C. The Absorbance which measured by a BIO-RAD (iMark) microplate reader at 405 nm was used to calculate the inhibitory activity according to the equation:η (%) = [(B − S)/B] × 100%(1) η (%) is the percentage of inhibition; B is the assay medium with DMSO; S is the assay medium with compound. The results of IC50 values were calculated by the nonlinear regression analysis.

Row | EC50 [1] | IC50 [2] | melting point | Molecule | Antioxidant % Inhibition (100 μM) [1]
1 | 59.1 µM | > 50 µM |  | 1,3-dihydro-5-methoxy-7-methylisobenzofuran [Compound 6] | 65%
2 | 85.8 µM | > 50 µM | 95.9 to 97.8 °C | COC(=O)c1c(C)c(O)c(O)c(O)c1C=O [Compound 4, 2-methoxycarbonyl-4,5,6-trihydroxy-3-methyl-benzaldehyde] | 57%
3 | 16.3 µM | 26.7 µM |  | Cc1c(O)c(O)c(O)c(C=O)c1-c1cc2c(C=O)c(C)c(O)c(O)c2o1 [Compound 8, epicoccolide B] | 89%
4 | 22.4 µM |  |  | O=C1O[C@H]([C@@H](O)CO)C(O)=C1O [Ascorbic acid, ascorbic acid, reference compound] | 92%
5 |  | > 50 µM | 89.8 to 91.9 °C | CC(O)C1OCc2c(O)cccc21 [Compound 3, (R)-9-((R)-10-hydroxyethyl)-7,9-dihydroisobenzofuran-1-ol] | <50%
6 |  | > 50 µM |  | CC1=C(C)C2(C)C(=O)C(O)(C1=O)C1(C)C(=O)C2(O)C(=O)C(C)=C1C [Compound 2, dibefurin B] | <50%
7 |  | > 50 µM |  | Cc1c(O)cc(O)c(C(=O)OC[C@@H](O)[C@H](O)[C@H](O)CO)c1C [Compound 7, paeciloside A] | <50%
8 |  | > 50 µM |  | Cc1c(O)c(O)c(O)c2c1COC2=O [Compound 5, epicoccone B] | <50%

Row | Molecule | EC50 [1] | IC50 [2] | melting point | Antioxidant % Inhibition (100 μM) [1]
9 | CC1=CC2C=C(C)C(C)C3C(CC(C)C)NC(=O)C23C(=O)C2C3OC(c4c(C)c(O)c(O)c(O)c43)C2C(=O)CCC1 (stereo not drawn) [Compound 1, asperchalasine I] | 77.8 µM | 17.1 µM |  | 56%
